We go through 4 molecules from patent US11129820B2, “Ferroportin-inhibitor salts” (Vifor (International) AG, priority 2017, dated 2021).

In data set [1] the test system is beta2-microglobulin deficient (b2m−/−) mice. The experiment in a line: Correction of hyperferremia in beta2-microglobulin deficient mice. It counts as in vivo, mouse. The note with it: for Serum Iron Reduction (%): 60 mg/kg oral, 3 hours (##). The method, then:
Female and male homozygous b2m−/− mice are supplied from Jackson Laboratories (B6.129P2-B2mtm1Unc/J, Stock Number: 002087) at age of 6 to 7 weeks and fed standard diet (Harlan Provimi Kliba 3436) ad libitum. Age and gender matched WT C57BL/6 mice are supplied by Charles River. To study the acute effects of ferroportin (Fpn) inhibitors in iron overload b2m−/− mice are treated with compounds or the corresponding amount of vehicle at a volume of 10 ml/kg body weight. Fpn inhibitor compounds are formulated in 0.5% methylcellulose/water or 20% cremophor EL/water and dosed p.o. in mice at 50 mg/kg body weight. WT controls received only vehicle. Three hours later, mice are pre-terminally anesthetized in isoflurane chambers and blood is collected by retro-orbital bleeding. Mice are sacrificed by cervical dislocation and spleens, livers and duodena are harvested and used for biomarker analysis. All experiments are performed in compliance with license approved by the responsible veterinarian authorities. Serum is isolated by centrifugation of blood into gel-containing microtainers (BD Biosciences) and serum iron is determined by the MULTIGENT Iron assay (Abbott Diagnostics, Cat. 6K95). Four to nine mice per group are used and one-way ANOVA with Bonferroni's multiple comparison test is applied to analyze the statistical differences between the experimental groups.
Blood is collected 1 (#) or 3 (##) hours after oral administration of the indicated doses of Fpn inhibitors to beta2-microglobulin deficient mice and serum iron concentrations are measured. Relative reduction (%) of serum iron levels are shown, which were calculated by subtracting the average of serum iron values of animals dosed with the Fpn inhibitor from that of vehicle-treated animals. The difference in average serum iron values between vehicle and compound treated groups was then divided by the average of serum iron of the vehicle control group and listed as percentage. Values are listed separately for female (♀) and male (♂) animals, because a marked sex-dependent difference in efficacy was noted. Statistically significant (2-way ANOVA with Bonferroni post test) differences observed between compound-treated and vehicle-treated groups are indicated (*** p<0.001; ** p<0.01, p<0.05).

The next data set concerns the target T1, ferroportin (Fpn) (Mus musculus, UniProt Q9JHI9).
T1 construct: endogenous in cells; host or cells: J774 mouse macrophage cell line (DSMZ, Cat. ACC170), induced with 200 uM Fe(III)-NTA
T1 sequence (Q9JHI9 1-570): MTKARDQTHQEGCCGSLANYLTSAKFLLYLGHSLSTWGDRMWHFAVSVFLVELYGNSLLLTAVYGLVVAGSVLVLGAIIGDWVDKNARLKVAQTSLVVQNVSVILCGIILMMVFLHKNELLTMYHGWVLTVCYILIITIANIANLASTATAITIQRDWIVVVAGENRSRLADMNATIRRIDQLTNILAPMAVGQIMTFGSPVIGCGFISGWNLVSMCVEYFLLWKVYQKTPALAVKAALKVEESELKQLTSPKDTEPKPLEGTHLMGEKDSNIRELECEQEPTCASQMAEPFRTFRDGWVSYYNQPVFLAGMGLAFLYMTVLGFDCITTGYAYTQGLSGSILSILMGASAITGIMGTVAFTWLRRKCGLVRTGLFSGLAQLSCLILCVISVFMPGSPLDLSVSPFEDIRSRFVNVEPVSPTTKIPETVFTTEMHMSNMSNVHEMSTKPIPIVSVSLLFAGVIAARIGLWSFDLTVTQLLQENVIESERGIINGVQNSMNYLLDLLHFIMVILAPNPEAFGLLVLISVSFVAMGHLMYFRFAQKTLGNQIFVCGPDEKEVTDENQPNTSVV
The experiment in a line: Ferroportin Ubiquitination and Degradation (J774, immunoprecipitation, Western blot). The class given is cell-based. Set-up: key: +: comparable to hepcidin; −: no effect; +/−: intermediate effect. The note with it: J774 cells, ca. 10-fold IC50 concentration, visual inspection of Western blots. The method, then:
Exposure of cells expressing ferroportin (Fpn) to hepcidin is known to trigger ubiquitination and subsequent internalization and degradation of Fpn (Qiao, 2012). The potential of Fpn inhibitors to induce Fpn ubiquitination and degradation is investigated with an immunoprecipitation assay using the J774 mouse macrophage cell line which expresses Fpn upon treatment with iron.
Cells are incubated with synthetic human hepcidin (Bachem, Cat. H-5926) or Fpn inhibitor compounds for 10 min or 120 min. Cells are washed and lysed with ice-cold lysis buffer (Pierce, Life Technoligies, Cat. 87787) including 1×HALT protease inhibitor cocktail (Life technologies, Cat. 78429) and 10 mM iodoacetamide (Sigma, Cat. 16125) to stabilize ubiquitinated proteins. Immunoprecipitation is done using the Pierce Classic IP Kit (Life Technologies, Cat. 26146) following the manufacturer's protocol. Briefly, 2 mg protein in 1.25 ml IP lysis buffer is incubated by mixing for 1 h at 4° C. with control agarose beads to pre-clear the lysate and reduce nonspecific signal. Unbound lysate is then incubated overnight with 12 μg per reaction of the affinity purified anti-Fpn antibody F308 that was raised against a GST fusion protein of mouse Fpn amino acids 224-308. Immune complexes are captured by pipetting 14 μl settled Pierce Protein A/G Plus Agarose beads (Life Technologies, Cat. 20423) per reaction and the slurry is incubated for 1.5 h at 4° C. with gentle end-over-end mixing. The beads are washed and immune complexes are eluted directly with 75 μl SDS NuPAGE LDS sample buffer (Life Technologies, Cat. NP0007) containing DTT (Life Technologies, Cat. NP0009).
After immunoprecipitation samples are analyzed by Western blotting using a rabbit anti-mouse MTP1 antiserum (Alpha Diagnostic International, Cat. MTP11-A) and a mouse anti-mono- and polyubiquitinylated conjugates monoclonal antibody (Enzo Lifesciences, Cat. BML-PW8810) for detection of ferroportin and ubiquitin, respectively. Mouse monoclonal anti-rabbit IgG light chain (Abcam, Cat. ab99697) and anti-mouse IgG H&L (Abcam, Cat. ab6789) HRP conjugates are used as secondary antibodies.
In general terms: Immunoblotting shows a protein as a band on a membrane.

A further data set deals with Hbb th3/+ mice. The experiment in a line: Mouse model of β-thalassemia intermedia (Hbb th3/+ mice). The class given is in vivo. The settings on record: for Decrease in RDW by 20/60 mg/kg compound / Decrease in serum iron by 20/60 mg/kg compound: % change to vehicle; for Correction of anemia at day 20-48 by 20/60 mg/kg: hemoglobin difference to vehicle; for Decrease in serum iron by 20/60 mg/kg compound: dosed for 3 h. The method, then:
The efficacy of Fpn inhibitors is investigated using a mouse model of transfusion-independent β-thalassemia. Mice with heterozygous deletion of β 1 and β 2 globin genes (called Hbb th3/+ mice) develop transfusion-independent anemia, ineffective erythropoiesis, splenomegaly and secondary iron overload in spleen, liver and kidneys. […] Hbb th3/+ mice are dosed twice daily with either compound at 20 or 60 mg/kg or with methylcellulose (10 ml/kg, Sigma, Cat. 274429) as a vehicle. Between both doses mice have access to drinking water supplemented with 1 mM ^58Fe(II)-sulfate (Vifor Pharma, Batch No. ROR 3096) and 10 mM ascorbic acid (Sigma, Cat. 795437) for 6 h. The concentration of ^58Fe(II)-Sulfate supplied in the drinking water is adjusted to substitute for intake of standard rodent diet with iron content of 250 ppm. Water without ^58Fe(II)-Sulfate and ascorbic acid is provided during the remaining 18 h. Dosing of Fpn inhibitors or vehicle followed by exposure to iron-containing water is repeated for 20 to 46 days in individual experiments.
Additional hematologic parameters are measured in terminal blood using automated blood cell analyzer.
The inefficient erythropoiesis of Hbb th3/+ mice causes excessive proliferation of erythroid precursors in spleen, leading to splenomegaly.
Elevated erythropoietin levels in Hbb th3/+ mice induce overexpression of erythroferrone, an erythroid regulator hormone known to suppress hepcidin (Kautz L. et al, Nat. Genet., 2014). […] Erythroferrone is produced by erythrocyte precursors proliferating massively in spleens of Hbb th3/+ mice as a consequence of extramedullar erythropoiesis.
Increased iron demand due to inefficient erythropoiesis and chronically low hepcidin levels in patients with thalassemia causes organ iron loading and associated morbidities, such as hepatocellular carcinoma and heart failure (Rivella S. Haematologica, 2015). Hbb th3/+ mice absorb excessive amounts of iron as a consequence of inadequately low hepcidin levels relative to the high iron content in liver, spleen and kidney and increased ferroportin expression in duodenum (Gardenghi S., Blood, 2007).
Additionally, reactive oxygen species (ROS) are detected in bone marrow cells using a fluorescent indicator, CM-H2DCFDA (Thermo Fisher Scientific, Cat. C6827).
Data are expressed as difference to the vehicle control group for hemoglobin and as % change to the vehicle control group for all other parameter shown

Data set [2] can be described thus: Approximate solubility of the starting compound in solvents and solvent mixtures. The class given is physicochemical. The settings on record: thermodynamic from solid. How it is done:
Approximate solubilities were determined by incremental addition of solvent to about 10 mg the compound. […] Due to the experimental error inherent in this method, the solubility values are intended to be regarded as rough estimates and are to be used solely for the design of crystallization experiments.
Approximate solubilities were determined by incremental addition of solvent to about 10 mg of the compound. […] Due to the experimental error inherent in this method, the solubility values were regarded as rough estimates and were only used for the design of crystallization experiments.
The approximate solubility of SP236-FB-P1 was determined in a number of different solvents and solvent mixtures to help guide the salt/co-crystal experiments.

≈ marks a conversion by molar mass, not a printed value. Where only a bound is given, the exact number is not on record here.

Regarding `O=C(NCc1ncccc1F)c1csc(CCNCCc2nc3ccccc3[nH]2)n1` [Example Compound No. 94], the “Correction of elevated serum iron, in words” value in data set [1] (b2m−/− mice, 50 mg/kg p.o., 3 h) is reported as “corrected the elevated serum iron to the levels observed in WT controls”. The figures for the “Serum Iron Reduction (%)” value in data set [1] (female ♀) and in data set [1] (male ♂) were 47% and 67%, respectively.
Consider `O=C(NCc1ncccc1F)c1coc(CCNCc2nc3ccccc3[nH]2)n1` [Example Compound No. 126], for which, on ferroportin (Fpn), the “Fpn Degradation (120 min.)” value was “+” and the “Fpn Ubiquitination (10 min.)” value is recorded as “+/−”.
With `O=C(NCc1ncccc1F)c1coc(CCNCCc2nc3ccccc3[nH]2)n1` [Example Compound No. 127], the “Decrease in RDW by 20/60 mg/kg compound” value in the data set on Hbb th3/+ mice (20 mg/kg twice daily for 20-46 days) was 19%; in the data set with Hbb th3/+ mice (60 mg/kg twice daily for 20-46 days), 25%. Moreover, the “Correction of anemia at day 20-48 by 20/60 mg/kg” value in the data set with Hbb th3/+ mice (20 mg/kg twice daily) turned out to be 12 g/L; in the data set on Hbb th3/+ mice (60 mg/kg twice daily) it was 20 g/L. For the same molecule, the “Decrease in serum iron by 20/60 mg/kg compound” value with Hbb th3/+ mice (20 mg/kg) is listed as 68%; in the data set with Hbb th3/+ mice (60 mg/kg), 81%.
A word on the solubility: it is the dissolved amount per volume that the medium holds. Consider `O=C(NCc1ncccc1F)c1coc(CCNCCc2nc3ccccc3[nH]2)n1` [SP236-FB-P1], for which the solubility is 39 to 47 mg/mL (≈ 95.5 to 115 mM) in data set [2] (aqueous with cosolvent or surfactant or cyclodextrin, 2-propanol-water 1:3); > 100 mg/mL in data set [2] (aqueous with cosolvent or surfactant or cyclodextrin, Methanol-water 1:1); 80 to 120 mg/mL (≈ 196 to 294 mM) in data set [2] (organic solvent or mixture, 2-Propanol); > 200 mg/mL in data set [2] (organic solvent or mixture, Acetonitrile); > 100 mg/mL in data set [2] (organic solvent or mixture, DMSO); > 100 mg/mL in data set [2] (organic solvent or mixture, Dioxane). The solubility was > 100 mg/mL in data set [2] (organic solvent or mixture, Ethanol); > 100 mg/mL in data set [2] (organic solvent or mixture, Ethyl acetate); 5 to 7 mg/mL (≈ 12.2 to 17.1 mM) in data set [2] (organic solvent or mixture, Ethyl acetate-cyclohexane 3:1); < 1 mg/mL in data set [2] (organic solvent or mixture, Heptane); > 200 mg/mL in data set [2] (organic solvent or mixture, Methanol); > 200 mg/mL in data set [2] (organic solvent or mixture, THF). Moreover, the solubility in data set [2] (organic solvent or mixture, THF-heptane 3:1) is > 200 mg/mL; in data set [2] (Water), ~15 mg/mL (≈ 36.7 mM).
